{"source": "patent US20080220445A1", "about": "“Method of Screening Transmembrane Enzyme Inhibitory Substance” (TAKEDA PHARMACEUTICAL COMPANY LIMITED, priority 2004, published 2008)", "key": {"BACE1-465": {"target": "T1, BACE1-465 (Homo sapiens, UniProt P56817)", "T1 construct": "made in house; host or cells: FreeStyle 293-F cells (HEK293), culture supernatant", "T1 sequence (P56817 with tags, fused parts or gaps)": "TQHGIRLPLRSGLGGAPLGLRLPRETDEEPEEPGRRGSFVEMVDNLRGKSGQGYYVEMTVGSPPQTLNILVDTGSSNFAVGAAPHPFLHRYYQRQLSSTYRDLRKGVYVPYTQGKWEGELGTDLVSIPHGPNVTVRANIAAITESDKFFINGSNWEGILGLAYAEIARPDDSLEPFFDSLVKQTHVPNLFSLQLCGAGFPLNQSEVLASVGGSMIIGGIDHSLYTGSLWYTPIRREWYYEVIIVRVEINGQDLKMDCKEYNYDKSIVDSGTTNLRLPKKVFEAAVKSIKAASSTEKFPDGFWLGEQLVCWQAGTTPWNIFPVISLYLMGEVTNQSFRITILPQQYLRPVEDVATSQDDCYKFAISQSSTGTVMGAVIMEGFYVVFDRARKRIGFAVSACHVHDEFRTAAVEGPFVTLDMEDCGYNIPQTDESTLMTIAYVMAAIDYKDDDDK", "assay": "Inhibitory action on BACE1-465, fluorescence-quenched peptide substrate", "type": "biochemical", "details": "final concentration: 10 μM; 37° C. for 22 hr; pH5.5", "method": "(§1) To 96 black well plate, 25 μl of 0.05M acetate buffer (pH5.5), 10 μl of 250 μM substrate (Nma-Ser-Glu-Val-Lys-Met-Asp-Ala-Glu-Lys(Dnp)-Arg-Arg-NH2; SEQ ID NO: 11), 10 μl of BACE1-471 (0.05 mg/ml) or BACE1-465 (0.04 mg/ml) obtained from the above-mentioned Reference Example 7, and 5 μl of 0.1 mM Compound A in 10% DMSO solution, and as a control, 5 μl of 10% DMSO were added respectively, and allowed to be reacted at 37° C. for 50 hr for BACE1-471 and for 22 hr for BACE1-465. After completion of the reaction, the fluorescence intensity (excitation wavelength at 325 nm, measurement wavelength at 460 nm) was measured with Fluoroscan ASCENT."}, "BACE1-471": {"target": "T2, BACE1-471 (Homo sapiens, UniProt P56817)", "T2 construct": "made in house; host or cells: FreeStyle 293-F cells (HEK293)", "T2 sequence (P56817 with tags, fused parts or gaps)": "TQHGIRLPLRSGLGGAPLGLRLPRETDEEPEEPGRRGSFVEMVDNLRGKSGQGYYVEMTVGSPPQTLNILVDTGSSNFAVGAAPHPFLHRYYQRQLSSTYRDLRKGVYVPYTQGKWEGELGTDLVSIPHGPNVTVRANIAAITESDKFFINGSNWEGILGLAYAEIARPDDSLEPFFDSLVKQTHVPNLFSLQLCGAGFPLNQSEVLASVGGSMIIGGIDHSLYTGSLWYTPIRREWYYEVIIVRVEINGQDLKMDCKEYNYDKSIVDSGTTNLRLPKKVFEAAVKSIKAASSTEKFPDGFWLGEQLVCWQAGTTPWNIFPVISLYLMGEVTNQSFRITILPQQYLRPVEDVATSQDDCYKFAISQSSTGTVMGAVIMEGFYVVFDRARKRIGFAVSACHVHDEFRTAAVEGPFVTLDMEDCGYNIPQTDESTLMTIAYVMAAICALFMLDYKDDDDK", "assay": "Inhibitory action on BACE1-471, fluorescence-quenched peptide substrate", "type": "biochemical", "details": "pH 5.5; final concentration: 10 μM; 37° C. for 50 hr; pH5.5; read-out: inhibition rates on BACE1-471", "method": "as §1"}, "[1]": {"target": "T3, recombinant human BACE-1 (amino acid residues 1-460, R & D Systems) (Homo sapiens, UniProt P56817)", "T3 construct": "a recombinant human BACE-1 (amino acid residues 1-460, R & D Systems); purchased R & D Systems", "T3 sequence (P56817 22-460)": "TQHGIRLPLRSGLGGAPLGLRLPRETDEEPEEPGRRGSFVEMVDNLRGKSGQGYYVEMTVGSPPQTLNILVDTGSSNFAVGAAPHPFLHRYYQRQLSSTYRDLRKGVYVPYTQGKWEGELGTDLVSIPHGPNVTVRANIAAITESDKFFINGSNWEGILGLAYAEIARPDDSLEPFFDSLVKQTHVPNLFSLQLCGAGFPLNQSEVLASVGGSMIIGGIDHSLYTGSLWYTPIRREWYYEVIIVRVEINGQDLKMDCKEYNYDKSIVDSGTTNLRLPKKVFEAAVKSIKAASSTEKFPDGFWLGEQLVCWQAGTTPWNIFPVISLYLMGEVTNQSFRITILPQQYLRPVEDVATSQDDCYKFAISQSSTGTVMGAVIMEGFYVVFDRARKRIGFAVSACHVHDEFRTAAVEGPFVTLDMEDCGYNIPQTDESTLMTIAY", "assay": "Inhibitory action on BACE protein, fluorescence-quenched peptide substrate", "type": "biochemical", "details": "final concentration: 10 μM; 37° C. for 63 hr; pH 5.5", "method": "(§2) To 96 black well plate, 25 μl of 0.05 M acetate buffer (pH 5.5), 10 μl of 250 μM substrate (Nma-Ser-Glu-Val-Lys-Met-Asp-Ala-Glu-Lys(Dnp)-Arg-Arg-NH2; SEQ ID NO: 11), 10 μl of BACE1-474 (0.02 mg/ml) or BACE1-454 (0.01 mg/ml) obtained from the above-mentioned Reference Example 5 or a recombinant human BACE-1 (amino acid residues 1-460, R & D Systems) (0.025 mg/ml) commercially available as an extracellular domain, and 5 μl of each compound in 10% DMSO solution, and as a control, 5 μl of 10% DMSO were added respectively, and allowed to be reacted at 37° C. for 63 hr. After completion of the reaction, the fluorescence intensity (excitation wavelength at 325 nm, measurement wavelength at 460 nm) was measured with Fluoroscan ASCENT."}, "[2]": {"target": "T4, BACE1-454 (extracellular domain of β-secretase) (Homo sapiens, UniProt P56817)", "T4 construct": "made in house; host or cells: FreeStyle 293-F cells (HEK293), culture supernatant", "T4 sequence (P56817 with tags, fused parts or gaps)": "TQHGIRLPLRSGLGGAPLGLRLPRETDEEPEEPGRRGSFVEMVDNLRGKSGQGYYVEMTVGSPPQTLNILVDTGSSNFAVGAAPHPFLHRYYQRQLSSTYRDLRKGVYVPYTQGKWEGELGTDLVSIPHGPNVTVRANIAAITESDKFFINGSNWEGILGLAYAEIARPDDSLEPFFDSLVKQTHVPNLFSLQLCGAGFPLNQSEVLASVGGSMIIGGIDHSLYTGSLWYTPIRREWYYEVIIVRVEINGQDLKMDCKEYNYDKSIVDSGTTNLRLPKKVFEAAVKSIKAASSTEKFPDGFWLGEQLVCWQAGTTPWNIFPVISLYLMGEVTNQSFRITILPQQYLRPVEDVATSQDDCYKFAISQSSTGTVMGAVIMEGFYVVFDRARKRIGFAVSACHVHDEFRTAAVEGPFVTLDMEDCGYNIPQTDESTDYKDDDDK", "assay": "Inhibitory action on BACE protein, fluorescence-quenched peptide substrate", "type": "biochemical", "details": "final concentration: 10 μM; 37° C. for 63 hr; pH 5.5", "method": "as §2"}, "[3]": {"target": "T5, BACE1-474 (extracellular domain and transmembrane domain of β-secretase) (Homo sapiens, UniProt P56817)", "T5 construct": "made in house; host or cells: FreeStyle 293-F cells (HEK293)", "T5 sequence (P56817 with tags, fused parts or gaps)": "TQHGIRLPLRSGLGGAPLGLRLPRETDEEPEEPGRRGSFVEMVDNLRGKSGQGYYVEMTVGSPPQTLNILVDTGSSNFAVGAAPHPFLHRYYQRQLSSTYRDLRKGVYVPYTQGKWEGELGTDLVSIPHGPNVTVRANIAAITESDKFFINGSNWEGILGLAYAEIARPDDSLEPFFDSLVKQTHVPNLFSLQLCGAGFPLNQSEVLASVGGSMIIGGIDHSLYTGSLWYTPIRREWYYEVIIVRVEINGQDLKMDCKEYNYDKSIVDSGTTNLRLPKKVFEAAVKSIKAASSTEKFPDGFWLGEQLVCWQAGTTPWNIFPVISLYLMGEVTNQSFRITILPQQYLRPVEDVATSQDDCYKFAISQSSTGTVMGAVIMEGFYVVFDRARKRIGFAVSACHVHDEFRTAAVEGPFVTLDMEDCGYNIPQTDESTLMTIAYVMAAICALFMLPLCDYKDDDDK", "assay": "Inhibitory action on BACE protein, fluorescence-quenched peptide substrate", "type": "biochemical", "details": "final concentration: 10 μM; 37° C. for 63 hr; pH 5.5; read-out: inhibition rates on BACE1-474", "method": "as §2"}, "BACE1-501": {"target": "T6, BACE1-501 (Homo sapiens, UniProt P56817)", "T6 construct": "Expression of full-length β-secretase protein (BACE1-501) was performed with FreeStyle 293 Expression System; made in house; host or cells: FreeStyle 293-F cells (HEK293)", "T6 sequence (P56817 with tags, fused parts or gaps)": "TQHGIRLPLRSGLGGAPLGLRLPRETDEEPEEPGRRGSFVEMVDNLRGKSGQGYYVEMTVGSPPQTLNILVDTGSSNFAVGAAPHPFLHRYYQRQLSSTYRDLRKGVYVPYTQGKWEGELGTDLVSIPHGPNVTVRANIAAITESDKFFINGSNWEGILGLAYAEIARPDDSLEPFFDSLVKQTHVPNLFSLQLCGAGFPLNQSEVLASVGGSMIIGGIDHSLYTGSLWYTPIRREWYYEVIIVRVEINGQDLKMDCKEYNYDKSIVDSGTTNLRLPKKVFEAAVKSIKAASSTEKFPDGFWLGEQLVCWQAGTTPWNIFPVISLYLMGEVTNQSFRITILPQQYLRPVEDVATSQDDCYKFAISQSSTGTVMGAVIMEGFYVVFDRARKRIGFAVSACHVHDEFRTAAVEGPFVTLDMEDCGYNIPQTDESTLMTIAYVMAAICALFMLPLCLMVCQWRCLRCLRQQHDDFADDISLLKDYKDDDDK", "assay": "Detection of binding by surface plasmon resonance (Biacore3000)", "details": "PBS containing 10% DMSO and 0.005% Surfactant P20", "from_the_text": "Biacore3000 (Biacore) was used for analysis by surface plasmon resonance. BACE1-501 and the recombinant human BACE-1 (amino acid residue 1-460) were immobilized to carboxyl groups on CM5 sensorchip (carboxymethylated dextran matrix chip) activated with N-hydrosuccinimide (NHS)/N-ethyl-N′-(3-dimethyl-aminopropyl)-carbodiimide hydrochloride (EDC) in acetate buffer at pH 4.5. BACE1-454 and BACE1-474 were immobilized by the same way in acetate buffer at pH 4.0. The binding of the compound and the enzymes was measured in PBS containing 10% DMSO and 0.005% Surfactant P20. The correction of the difference of Resonance Unit (RU) value among flow cells resulting from the bulk effect was carried out with a correction curve made using the buffers with the DMSO concentration varied from 9% to 11% in the five-graded. As a result, signals showing the binding of each compound to BACE1-501 and BACE1-474 were observed. On the other hand, for BACE1-454 and the recombinant human BACE-1 (amino acid residue 1-460), no signal was observed showing the binding."}}, "data": [{"compound": "CN(C)CC[C@@H]1CCc2cc(OCc3ccc(-c4ccccc4)cc3)ccc2C1", "note": "[Compound A]", "values": [{"measurement": "inhibitory activity on BACE1-465", "setting": "BACE1-465", "value": "no inhibitory activity"}, {"measurement": "inhibition at 10 µM", "setting": "BACE1-471", "value": 29, "unit": "%"}, {"measurement": "inhibitory activity on the recombinant human BACE-1", "setting": "[1]", "value": "no inhibitory activity"}, {"measurement": "inhibitory activity on BACE1-454", "setting": "[2]", "value": "no inhibitory activity"}, {"measurement": "inhibition at 10 µM", "setting": "[3]", "value": 30, "unit": "%"}]}, {"compound": "CCN(CC)CCC1CCc2cc(OCc3ccc(-c4ccccc4)cc3)ccc2C1", "note": "(centres unmarked) [Compound D]", "values": [{"measurement": "inhibitory activity on BACE1-465", "setting": "BACE1-465", "value": "no inhibitory activity"}, {"measurement": "inhibition at 10 µM", "setting": "BACE1-471", "value": 42, "unit": "%"}, {"measurement": "inhibitory activity on the recombinant human BACE-1", "setting": "[1]", "value": "no inhibitory activity"}, {"measurement": "inhibitory activity on BACE1-454", "setting": "[2]", "value": "no inhibitory activity"}, {"measurement": "inhibition at 10 µM", "setting": "[3]", "value": 38, "unit": "%"}]}, {"compound": "C[N+](C)([O-])CC[C@@H]1CCc2cc(OCc3ccc(-c4ccccc4)cc3)ccc2C1", "note": "[Compound H]", "values": [{"measurement": "inhibitory activity on BACE1-465", "setting": "BACE1-465", "value": "no inhibitory activity"}, {"measurement": "inhibition at 10 µM", "setting": "BACE1-471", "value": 31, "unit": "%"}, {"measurement": "inhibitory activity on the recombinant human BACE-1", "setting": "[1]", "value": "no inhibitory activity"}, {"measurement": "inhibitory activity on BACE1-454", "setting": "[2]", "value": "no inhibitory activity"}, {"measurement": "inhibition at 10 µM", "setting": "[3]", "value": 34, "unit": "%"}]}, {"compound": "NCCC1CCc2cc(OCc3ccc(-c4ccccc4)cc3)ccc2C1", "note": "(centres unmarked) [Compound I]", "values": [{"measurement": "inhibitory activity on BACE1-465", "setting": "BACE1-465", "value": "no inhibitory activity"}, {"measurement": "inhibition at 10 µM", "setting": "BACE1-471", "value": 70, "unit": "%"}, {"measurement": "inhibitory activity on the recombinant human BACE-1", "setting": "[1]", "value": "no inhibitory activity"}, {"measurement": "inhibitory activity on BACE1-454", "setting": "[2]", "value": "no inhibitory activity"}, {"measurement": "inhibition at 10 µM", "setting": "[3]", "value": 37, "unit": "%"}]}, {"compound": "Cc1ccc(-c2ccc(COc3ccc4c(c3)CC[C@@H](CCN(C)C)C4)cc2)cc1", "note": "[Compound J]", "values": [{"measurement": "SPR signal showing the binding to BACE1-501", "setting": "BACE1-501", "value": "binding"}, {"measurement": "inhibitory activity on BACE1-465", "setting": "BACE1-465", "value": "no inhibitory activity"}, {"measurement": "inhibition at 10 µM", "setting": "BACE1-471", "value": 48, "unit": "%"}, {"measurement": "inhibitory activity on the recombinant human BACE-1", "setting": "[1]", "value": "no inhibitory activity"}, {"measurement": "inhibitory activity on BACE1-454", "setting": "[2]", "value": "no inhibitory activity"}, {"measurement": "inhibition at 10 µM", "setting": "[3]", "value": 37, "unit": "%"}]}]}
